Laboratory results: PMC5909127, “Optimization of a “bump-and-hole” approach to allele-selective BET bromodomain inhibition” (Chemical Science, 2018)

Columns and labels:
[1] = target: BRD2 BD1 WT (Homo sapiens, UniProt P25440); assay: competitive AlphaLISA; assay type: binding
[2] = target: BRD2 BD1 L/V (Homo sapiens, UniProt P25440, L110V); assay: competitive AlphaLISA; assay type: binding
[3] = target: BRDT BD1 WT (Homo sapiens, UniProt Q58F21); assay: competitive AlphaLISA; assay type: binding
[4] = target: BRD3 BD1 WT (Homo sapiens, UniProt Q15059); assay: competitive AlphaLISA; assay type: binding
[5] = target: BRDT BD2 L/V (Homo sapiens, UniProt Q58F21, L306V); assay: competitive AlphaLISA; assay type: binding
[6] = Plasma Half-life; conditions: BALB/c, mouse, pH 7.4
[7] = target: WT somatic BET bromodomains; assay: ITC; conditions: mean and SD of all somatic bromodomains
[8] = target: V1a (h) (Homo sapiens, UniProt P37288); assay: CEREP ExpresSProfile; conditions: read-out: Mean % of control specific binding (±SD)
[9] = target: D2S (h) (Homo sapiens, UniProt P14416); assay: CEREP ExpresSProfile; conditions: read-out: Mean % of control specific binding (±SD)
[10] = target: 5-HT3 (h) (Homo sapiens, UniProt P46098); assay: CEREP ExpresSProfile; conditions: read-out: Mean % of control specific binding (±SD)
From the text: (§5) Receptor Reference Compound Mean % of control specific
Receptor & Ion-Channel Screening
CEREP ExpresSProfile panel

[11] = target: A2A (h) (Homo sapiens, UniProt P29274); assay: CEREP ExpresSProfile; conditions: read-out: Mean % of control specific binding (±SD)
Sequence of A2A (h) (P29274 whole entry): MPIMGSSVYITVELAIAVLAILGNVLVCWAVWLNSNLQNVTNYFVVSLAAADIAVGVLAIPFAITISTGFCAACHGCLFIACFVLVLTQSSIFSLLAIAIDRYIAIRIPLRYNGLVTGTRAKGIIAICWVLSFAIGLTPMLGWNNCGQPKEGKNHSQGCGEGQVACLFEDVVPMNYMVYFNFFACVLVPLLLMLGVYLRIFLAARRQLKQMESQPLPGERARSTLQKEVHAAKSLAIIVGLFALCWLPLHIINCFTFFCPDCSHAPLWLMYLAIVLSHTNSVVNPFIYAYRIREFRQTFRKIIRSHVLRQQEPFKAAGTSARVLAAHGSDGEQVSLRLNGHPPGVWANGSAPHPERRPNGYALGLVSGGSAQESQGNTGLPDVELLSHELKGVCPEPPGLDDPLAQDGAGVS

[12] = target: NK2 (h) (Homo sapiens, UniProt P21452); assay: CEREP ExpresSProfile; conditions: read-out: Mean % of control specific binding (±SD)
Sequence of NK2 (h) (P21452 whole entry): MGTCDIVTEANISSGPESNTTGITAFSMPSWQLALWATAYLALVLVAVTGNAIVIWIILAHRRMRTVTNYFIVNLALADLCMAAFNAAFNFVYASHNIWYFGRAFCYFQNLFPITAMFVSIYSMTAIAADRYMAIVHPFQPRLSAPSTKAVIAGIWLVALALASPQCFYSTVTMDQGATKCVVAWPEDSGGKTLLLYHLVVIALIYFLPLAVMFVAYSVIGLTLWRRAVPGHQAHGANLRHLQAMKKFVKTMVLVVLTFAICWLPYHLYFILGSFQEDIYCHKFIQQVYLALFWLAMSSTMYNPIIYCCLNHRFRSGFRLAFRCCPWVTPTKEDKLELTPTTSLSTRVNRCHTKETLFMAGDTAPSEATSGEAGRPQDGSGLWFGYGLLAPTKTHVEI

[13] = target: 5-HT6 (h) (Homo sapiens, UniProt P50406); assay: CEREP ExpresSProfile; conditions: read-out: Mean % of control specific binding (±SD)
Sequence of 5-HT6 (h) (P50406 whole entry): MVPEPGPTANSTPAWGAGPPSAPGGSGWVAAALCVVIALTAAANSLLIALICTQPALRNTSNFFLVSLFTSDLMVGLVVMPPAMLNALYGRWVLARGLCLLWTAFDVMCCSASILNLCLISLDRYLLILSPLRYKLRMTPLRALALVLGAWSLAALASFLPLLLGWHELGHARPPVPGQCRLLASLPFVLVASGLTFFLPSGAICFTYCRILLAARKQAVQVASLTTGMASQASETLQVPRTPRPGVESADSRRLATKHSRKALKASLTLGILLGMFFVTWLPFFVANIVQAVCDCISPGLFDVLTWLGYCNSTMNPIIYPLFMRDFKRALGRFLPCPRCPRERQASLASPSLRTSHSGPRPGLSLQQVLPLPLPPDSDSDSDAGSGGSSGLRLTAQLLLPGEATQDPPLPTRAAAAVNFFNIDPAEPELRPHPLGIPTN

[14] = tested on: sst (non-selective); assay: CEREP ExpresSProfile; assay type: binding; conditions: 1 µM
[15] = target: beta 1 (h) (Homo sapiens, UniProt P08588); assay: CEREP ExpresSProfile; conditions: read-out: Mean % of control specific binding (±SD)
[16] = target: 5-HT1B (Rattus norvegicus, UniProt P28564); assay: CEREP ExpresSProfile; conditions: read-out: Mean % of control specific binding (±SD)
[17] = target: M2 (h) (Homo sapiens, UniProt P08172); assay: CEREP ExpresSProfile; conditions: read-out: Mean % of control specific binding (±SD)
[18] = target: Y1 (h) (Homo sapiens, UniProt P25929); assay: CEREP ExpresSProfile; conditions: read-out: Mean % of control specific binding (±SD)
Sequence of Y1 (h) (P25929 whole entry): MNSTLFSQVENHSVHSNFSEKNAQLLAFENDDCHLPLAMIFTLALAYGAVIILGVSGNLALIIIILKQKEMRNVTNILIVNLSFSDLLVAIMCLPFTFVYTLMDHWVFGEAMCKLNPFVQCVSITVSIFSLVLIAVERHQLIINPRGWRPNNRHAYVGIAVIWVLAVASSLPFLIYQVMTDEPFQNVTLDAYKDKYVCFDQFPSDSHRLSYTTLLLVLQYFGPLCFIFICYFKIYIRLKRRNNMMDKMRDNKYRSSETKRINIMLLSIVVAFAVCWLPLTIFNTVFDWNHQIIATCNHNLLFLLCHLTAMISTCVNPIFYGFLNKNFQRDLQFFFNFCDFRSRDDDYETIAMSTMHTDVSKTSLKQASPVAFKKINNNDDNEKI

[19] = target: 5-HT transporter (h) (Homo sapiens, UniProt P31645); assay: CEREP ExpresSProfile; conditions: read-out: Mean % of control specific binding (±SD)
[20] = target: mu (MOP) (h) (Homo sapiens, UniProt P35372); assay: CEREP ExpresSProfile; conditions: read-out: Mean % of control specific binding (±SD)
Sequence of mu (MOP) (h) (P35372 whole entry): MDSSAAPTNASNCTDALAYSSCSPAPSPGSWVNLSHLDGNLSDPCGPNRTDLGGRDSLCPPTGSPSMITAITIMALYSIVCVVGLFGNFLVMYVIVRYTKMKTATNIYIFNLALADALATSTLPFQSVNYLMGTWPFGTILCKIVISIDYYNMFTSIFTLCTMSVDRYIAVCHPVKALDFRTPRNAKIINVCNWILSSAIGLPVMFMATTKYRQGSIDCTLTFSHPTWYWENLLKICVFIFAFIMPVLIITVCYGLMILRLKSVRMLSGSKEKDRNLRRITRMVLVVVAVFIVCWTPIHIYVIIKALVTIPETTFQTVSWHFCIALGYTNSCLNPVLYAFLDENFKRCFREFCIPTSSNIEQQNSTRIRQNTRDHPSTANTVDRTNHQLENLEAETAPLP

[21] = target: M3 (h) (Homo sapiens, UniProt P20309); assay: CEREP ExpresSProfile; conditions: read-out: Mean % of control specific binding (±SD)
[22] = target: GFP-labelled L/V BRD4 in U2OS cells (Homo sapiens, UniProt O60885, L387V/L94V); assay: FRAP; conditions: 200 nM, 2 μM SAHA
[23] = target: NOP (ORL1) (h) (Homo sapiens, UniProt P41146); assay: CEREP ExpresSProfile; conditions: read-out: Mean % of control specific binding (±SD)
[24] = target: GAL2 (h) (Homo sapiens, UniProt O43603); assay: CEREP ExpresSProfile; conditions: read-out: Mean % of control specific binding (±SD)
From the text: as §5
Receptor & Ion-Channel Screening
CEREP ExpresSProfile panel

[25] = tested on: KV channel; assay: CEREP ExpresSProfile; assay type: binding; conditions: 1 µM
From the text: as §5
Receptor & Ion-Channel Screening
CEREP ExpresSProfile panel

[26] = target: M1 (h) (Homo sapiens, UniProt P11229); assay: CEREP ExpresSProfile; conditions: read-out: Mean % of control specific binding (±SD)
[27] = target: norepinephrine transporter (h) (Homo sapiens, UniProt P23975); assay: CEREP ExpresSProfile; conditions: read-out: Mean % of control specific binding (±SD)
Sequence of norepinephrine transporter (h) (P23975 whole entry): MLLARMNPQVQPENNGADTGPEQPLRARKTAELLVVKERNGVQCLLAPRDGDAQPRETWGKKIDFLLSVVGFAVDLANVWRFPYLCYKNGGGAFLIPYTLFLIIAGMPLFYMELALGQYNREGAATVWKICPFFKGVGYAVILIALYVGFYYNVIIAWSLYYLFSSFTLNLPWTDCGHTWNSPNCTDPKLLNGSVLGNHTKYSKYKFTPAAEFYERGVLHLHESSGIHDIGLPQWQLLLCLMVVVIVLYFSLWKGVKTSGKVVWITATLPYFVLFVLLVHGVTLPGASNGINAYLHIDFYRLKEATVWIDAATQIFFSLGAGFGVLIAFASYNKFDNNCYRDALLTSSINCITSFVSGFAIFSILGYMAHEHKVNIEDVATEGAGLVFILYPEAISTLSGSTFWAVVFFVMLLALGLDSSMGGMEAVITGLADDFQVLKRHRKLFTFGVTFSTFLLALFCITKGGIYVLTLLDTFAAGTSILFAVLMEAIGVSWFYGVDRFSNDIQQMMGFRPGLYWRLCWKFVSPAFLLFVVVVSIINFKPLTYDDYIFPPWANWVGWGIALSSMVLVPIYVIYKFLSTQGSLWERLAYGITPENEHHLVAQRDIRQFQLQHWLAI
From the text: as §5
Receptor & Ion-Channel Screening
CEREP ExpresSProfile panel

[28] = tested on: GABA (non-selective); assay: CEREP ExpresSProfile; assay type: binding; conditions: 1 µM
[29] = target: EP4 (h) (Homo sapiens, UniProt P35408); assay: CEREP ExpresSProfile; conditions: read-out: Mean % of control specific binding (±SD)
Sequence of EP4 (h) (P35408 whole entry): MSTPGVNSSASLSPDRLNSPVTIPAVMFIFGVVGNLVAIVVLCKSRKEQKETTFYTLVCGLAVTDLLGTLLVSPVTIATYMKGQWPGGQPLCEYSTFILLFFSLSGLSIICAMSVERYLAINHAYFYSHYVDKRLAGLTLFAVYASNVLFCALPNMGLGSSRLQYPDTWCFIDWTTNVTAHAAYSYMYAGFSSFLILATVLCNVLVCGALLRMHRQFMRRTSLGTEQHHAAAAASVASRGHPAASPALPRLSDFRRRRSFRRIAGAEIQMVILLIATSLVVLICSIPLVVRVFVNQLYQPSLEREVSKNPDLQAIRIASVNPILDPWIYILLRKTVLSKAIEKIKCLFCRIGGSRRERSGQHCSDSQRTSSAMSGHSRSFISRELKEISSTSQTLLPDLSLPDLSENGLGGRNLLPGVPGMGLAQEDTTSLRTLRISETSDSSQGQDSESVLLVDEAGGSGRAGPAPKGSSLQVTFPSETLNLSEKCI

[30] = target: H1 (h) (Homo sapiens, UniProt P35367); assay: CEREP ExpresSProfile; conditions: read-out: Mean % of control specific binding (±SD)
[31] = tested on: Na+ channel (site 2); assay: CEREP ExpresSProfile; assay type: binding; conditions: 1 µM
[32] = tested on: BZD (central); assay: CEREP ExpresSProfile; assay type: binding; conditions: 1 µM
[33] = target: EPH-A2 (Homo sapiens, UniProt P29317); assay: kinase Express Screen; assay type: biochemical
Method: (§1) Kinase Remaining activity
(§2) Table S9. 9-ME-1 Kinase Screen
(§3) Activity of panel of human kinases following treatment with 1 µM (2R, 3S)-7. Dundee MRC-PPU Express Screen
(§4) (http://www.kinase-screen.mrc.ac.uk/services/express-screen)

[34] = target: Lck (Homo sapiens, UniProt P06239); assay: kinase Express Screen; assay type: biochemical
Method: as §1, §2, §3, §4

[35] = target: TrkA (Homo sapiens, UniProt P04629); assay: kinase Express Screen; assay type: biochemical
Sequence of TrkA (P04629 33-796): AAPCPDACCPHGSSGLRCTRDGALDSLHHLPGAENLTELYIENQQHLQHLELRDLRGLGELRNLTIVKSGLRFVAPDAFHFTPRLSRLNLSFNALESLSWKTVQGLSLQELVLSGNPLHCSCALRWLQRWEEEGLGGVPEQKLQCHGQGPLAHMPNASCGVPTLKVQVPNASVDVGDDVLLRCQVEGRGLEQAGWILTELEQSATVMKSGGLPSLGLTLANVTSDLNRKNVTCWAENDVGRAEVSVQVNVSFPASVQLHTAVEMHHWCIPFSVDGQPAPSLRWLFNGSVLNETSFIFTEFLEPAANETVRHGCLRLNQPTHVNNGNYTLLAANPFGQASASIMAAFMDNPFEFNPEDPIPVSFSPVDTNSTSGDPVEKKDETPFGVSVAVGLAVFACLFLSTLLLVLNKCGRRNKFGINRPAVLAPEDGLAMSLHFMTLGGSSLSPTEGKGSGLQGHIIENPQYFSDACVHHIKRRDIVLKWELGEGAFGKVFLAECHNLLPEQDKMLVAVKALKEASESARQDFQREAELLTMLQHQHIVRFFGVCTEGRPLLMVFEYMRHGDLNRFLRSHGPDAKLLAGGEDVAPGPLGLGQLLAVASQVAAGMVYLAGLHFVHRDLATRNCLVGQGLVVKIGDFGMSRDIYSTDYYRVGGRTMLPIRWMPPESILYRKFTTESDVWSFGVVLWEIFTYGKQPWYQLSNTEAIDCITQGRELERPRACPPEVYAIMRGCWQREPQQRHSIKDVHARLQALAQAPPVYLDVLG
Method: as §1, §2, §3, §4

[36] = target: PLK1 (Homo sapiens, UniProt P53350); assay: kinase Express Screen; assay type: biochemical
Method: as §1, §2, §3, §4

[37] = target: PKCa (Homo sapiens, UniProt P17252); assay: kinase Express Screen; assay type: biochemical
Method: as §1, §2, §3, §4

[38] = target: CHK2 (Homo sapiens, UniProt O96017); assay: kinase Express Screen; assay type: biochemical
Method: as §1, §2, §3, §4

[39] = target: MKK1 (Homo sapiens, UniProt Q02750); assay: kinase Express Screen; assay type: biochemical
Sequence of MKK1 (Q02750 whole entry): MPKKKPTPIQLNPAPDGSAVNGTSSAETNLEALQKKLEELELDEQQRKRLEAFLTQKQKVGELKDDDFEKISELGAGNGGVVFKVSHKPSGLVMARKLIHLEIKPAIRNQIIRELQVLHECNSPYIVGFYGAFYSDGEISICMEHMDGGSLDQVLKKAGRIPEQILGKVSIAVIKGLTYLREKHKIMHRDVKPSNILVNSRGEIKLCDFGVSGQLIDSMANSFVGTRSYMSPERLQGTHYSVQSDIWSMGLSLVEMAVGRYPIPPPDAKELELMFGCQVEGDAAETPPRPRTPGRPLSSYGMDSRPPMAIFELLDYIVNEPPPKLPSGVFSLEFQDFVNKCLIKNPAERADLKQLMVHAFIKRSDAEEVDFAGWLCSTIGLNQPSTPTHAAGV
Method: as §1, §2, §3, §4

[40] = target: CB1 (h) (Homo sapiens, UniProt P21554); assay: CEREP ExpresSProfile; conditions: read-out: Mean % of control specific binding (±SD)
Sequence of CB1 (h) (P21554 whole entry): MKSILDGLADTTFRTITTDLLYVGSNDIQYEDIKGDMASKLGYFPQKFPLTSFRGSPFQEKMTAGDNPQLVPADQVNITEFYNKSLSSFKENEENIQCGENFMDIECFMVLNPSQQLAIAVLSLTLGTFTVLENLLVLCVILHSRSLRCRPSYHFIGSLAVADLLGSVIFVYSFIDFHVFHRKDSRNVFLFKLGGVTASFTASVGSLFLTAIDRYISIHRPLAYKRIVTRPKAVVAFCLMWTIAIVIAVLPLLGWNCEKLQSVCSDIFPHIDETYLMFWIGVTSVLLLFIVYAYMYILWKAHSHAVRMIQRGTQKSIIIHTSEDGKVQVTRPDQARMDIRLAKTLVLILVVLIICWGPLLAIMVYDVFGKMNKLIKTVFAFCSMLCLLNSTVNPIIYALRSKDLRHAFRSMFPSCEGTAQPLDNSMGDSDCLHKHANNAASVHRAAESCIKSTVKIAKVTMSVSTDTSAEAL
From the text: as §5
Receptor & Ion-Channel Screening
CEREP ExpresSProfile panel

[41] = target: 5-HT7 (h) (Homo sapiens, UniProt P34969); assay: CEREP ExpresSProfile; conditions: read-out: Mean % of control specific binding (±SD)
[42] = target: Y2 (h) (Homo sapiens, UniProt P49146); assay: CEREP ExpresSProfile; conditions: read-out: Mean % of control specific binding (±SD)
[43] = tested on: alpha 2 (non-selective); assay: CEREP ExpresSProfile; assay type: binding; conditions: 1 µM
[44] = target: NK3 (h) (Homo sapiens, UniProt P29371); assay: CEREP ExpresSProfile; conditions: read-out: Mean % of control specific binding (±SD)
From the text: as §5
Receptor & Ion-Channel Screening
CEREP ExpresSProfile panel

Sequence of BRD2 BD1 L/V (P25440 71-176 L110V limits assumed): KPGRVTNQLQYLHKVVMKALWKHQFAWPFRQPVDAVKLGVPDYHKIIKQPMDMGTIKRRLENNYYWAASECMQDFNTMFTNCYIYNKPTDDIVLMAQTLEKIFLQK

SMILES: CC[C@@H](C(=O)OC)[C@@H]1N=C(c2ccc(Cl)cc2)c2ccc(OC)cc2-n2c(C)nnc21 (racemic) [Compound 8]
- IC50 [1]: 10 µM
- IC50 [2]: 316 nM
- IC50 [3]: 15.8 µM
- IC50 [4]: 2510 nM
- IC50 [5]: 398 nM
- half-life at 50 µM [6]: > 180 min
- ITC pKd ± SD WT [7]: <4.2

SMILES: COC(=O)[C@H](C)[C@@H]1N=C(c2ccc(Cl)cc2)c2ccc(OC)cc2-n2c(C)nnc21 [(2R,3S)-7]
- remaining activity at 1 µM [8]: 102%
- remaining activity at 1 µM [9]: 95%
- remaining activity at 1 µM [10]: 96%
- remaining activity at 1 µM [11]: 99%
- remaining activity at 1 µM [12]: 101%
- remaining activity at 1 µM [13]: 112%
- Mean % of control specific binding (±SD) [14]: 108 (6) %
- remaining activity at 1 µM [15]: 95%
- remaining activity at 1 µM [16]: 98%
- remaining activity at 1 µM [17]: 105%
- remaining activity at 1 µM [18]: 122%
- remaining activity at 1 µM [19]: 96%
- remaining activity at 1 µM [20]: 119%
- remaining activity at 1 µM [21]: 101%
- displacement of L/V BRD4 (FRAP) [22]: almost complete displacement
- remaining activity at 1 µM [23]: 94%
- remaining activity at 1 µM [24]: 96%
- Mean % of control specific binding (±SD) [25]: 100 (0) %
- remaining activity at 1 µM [26]: 104%
- remaining activity at 1 µM [27]: 88%
- Mean % of control specific binding (±SD) [28]: 110 (1) %
- remaining activity at 1 µM [29]: 93%
- remaining activity at 1 µM [30]: 108%
- Mean % of control specific binding (±SD) [31]: 105 (6) %
- Mean % of control specific binding (±SD) [32]: 105 (10) %
- remaining activity at 1 µM [33]: 86%
- remaining activity at 1 µM [34]: 86%
- remaining activity at 1 µM [35]: 98%
- remaining activity at 1 µM [36]: 89%
- remaining activity at 1 µM [37]: 96%
- remaining activity at 1 µM [38]: 107%
- remaining activity at 1 µM [39]: 89%
- remaining activity at 1 µM [40]: 90%
- remaining activity at 1 µM [41]: 106%
- remaining activity at 1 µM [42]: 110%
- Mean % of control specific binding (±SD) [43]: 98 (0) %
- remaining activity at 1 µM [44]: 99%
